Source: article PMC6198970, “Safety, efficacy, and dose response of the maturation inhibitor GSK3532795 (formerly known as BMS-955176) plus tenofovir/emtricitabine once daily in treatment-naive HIV-1-infected adults: Week 24 primary analysis from a randomized Phase IIb trial” (PLoS ONE, 2018)
Like-named read-outs stand apart in the source and are kept apart here.

Legend:
CYP3A4 = system: CYP3A4; set-up: method as in protocol Section 1.4.1.2; conditions: ref protocol Section 1.4.1.2; cited from earlier work
[1] = BMS-955176 40 mg SDD suspension and TDF at steady state; ref Study AI468005; cited from earlier work
CD4+ T-cell count = test: Change from baseline in CD4+ T-cell count; format: in vivo, HIV-1-infected adults; conditions: Week 24
Source text: The primary endpoint was determination of the proportion of participants with plasma HIV-1 RNA <40 copies/mL at Week 24 after treatment with GSK3532795 or efavirenz (EFV). Secondary endpoints included mean changes from baseline in CD4+ T-cell count and mean changes in the percentage of CD4+ T-cell count over time. Secondary safety endpoints included frequency of adverse events (AEs), serious AEs (SAEs), and AEs leading to discontinuation through Week 24. Further secondary endpoints included emergence of drug resistance. Exploratory endpoints included assessment of the impact of Gag polymorphisms on the efficacy of GSK3532795. […] In addition, though Gag A364 is essentially invariant across genotypes, it was included in the primary endpoint analysis since emergent resistance to GSK3532795 (both in vitro and in Phase IIa studies) mapped, in part, to the A364V change. Thus, our analysis at the Week 24 primary endpoint was limited to these four positions. Pharmacokinetic (PK) analyses were performed to evaluate treatment exposure and assess the dose proportionality of GSK3532795 when co-administered with tenofovir disoproxil fumarate (TDF)/emtricitabine (FTC).

[2] = 10 mg/kg/day; ref protocol Section 1.4.1.2; cited from earlier work
[3] = cited from earlier work
[4] = cited from earlier work; remark: listed apart in the source
[5] = Clinical laboratory evaluations; format: in vivo, HIV-1-infected adults
Description: (§1) Physical examinations, measurement of vital signs, and clinical laboratory evaluations were performed at Weeks 4, 8, 12, 16 and 24, and participants were closely monitored for AEs and SAEs throughout. AEs were classified according to MedDRA version 19.0. The severity and relationship to study drug was assessed by the local investigator.

OCT2 = system: OCT2; set-up: method as in protocol Section 1.4.1.2; conditions: preliminary data; ref protocol Section 1.4.1.2; cited from earlier work
[6] = Adverse events through Week 24; format: in vivo, HIV-1-infected adults
Description: as §1

[7] = cited from earlier work; remark: listed apart in the source
[8] = biological target: broad range of enzymes, transporters, and receptors, including cardiac ion channels; set-up: method as in protocol Section 1.4.1.2; conditions: ref protocol Section 1.4.1.2; read-out: IC50 or EC50 for in vitro off-target interactions; cited from earlier work
[9] = system: mouse P-glycoprotein (P-gp); conditions: higher bioavailability in P-gp knock-out mice / with elacridar; ref protocol Section 1.4.1.2; cited from earlier work
[10] = cited from earlier work; remark: listed apart in the source
[11] = set-up: method as in protocol Section 1.4.1.2; conditions: 300 mg/kg/day (AUC 279 g·h/mL); ref protocol Section 1.4.1.2; cited from earlier work
93 subtype B viruses = system: 93 subtype B viruses; set-up: method as in protocol Section 1.4.1.2; conditions: ref protocol Section 1.4.1.2, read-out: EC50, median; cited from earlier work
[12] = set-up: method as in Study AI468049; conditions: 180 mg MC tablet, preliminary, ref Study AI468049, cited from earlier work
[13] = system: HIV-1 with A364V or V362I plus secondary changes; set-up: method as in protocol Section 1.4.1.2; conditions: ref protocol Section 1.4.1.2, cited from earlier work
[14] = system: P gp, NTCP, OAT1, OAT3, MRP2, BSEP; set-up: method as in protocol Section 1.4.1.2; conditions: ref protocol Section 1.4.1.2; cited from earlier work
OATP1B3 = system: OATP1B3; set-up: method as in protocol Section 1.4.1.2; conditions: ref protocol Section 1.4.1.2; cited from earlier work
[15] = cited from earlier work; remark: listed apart in the source
[16] = 30 mg/kg/day, ref protocol Section 1.4.1.2
[17] = GSK3532795: range across 60, 120, 180 mg arms, EFV 600 mg
[18] = GSK3532795 arms pooled, EFV 600 mg, abstract

Compound: C=C(C)[C@@H]1CC[C@]2(NCCN3CCS(=O)(=O)CC3)CC[C@]3(C)[C@H](CC[C@@H]4[C@@]5(C)CC=C(c6ccc(C(=O)O)cc6)C(C)(C)[C@@H]5CC[C@]43C)[C@@H]12 [GSK3532795]
- IC50 (CYP3A4): 32 µM
- Impact of coadministration on exposures [1]: neither BMS-955176 nor TDF exposures were meaningfully impacted
- Mean change in CD4+ T-cell count (SD) (CD4+ T-cell count; 60 mg): 94.3 (SD 175.00) cells/μL
- Mean change in CD4+ T-cell count (SD) (CD4+ T-cell count; 120 mg): 79.7 (SD 199.46) cells/μL
- Mean change in CD4+ T-cell count (SD) (CD4+ T-cell count; 180 mg): 92.5 (SD 144.04) cells/μL
- AUC at lowest dose with effects [2]: 71 gh/mL
- AUC at developmental NOAEL [3, 16]: 114 gh/mL
- Developmental NOAEL ([3]; rat, in vivo): 30 mg/kg/day
- Developmental toxicity classification ([3]; rats, ref protocol Section 1.4.1.2): not a selective developmental toxicant
- AUC at NOAEL [4, 16]: 1.135e+08 µg·h/mL
- ALT activity not recovered, fold ([4]; 100 mg/kg/day, 1 male, end of 2-week recovery, ref protocol Section 1.4.1.2): 1.94 x
- AUC at dose with dose-limiting toxicity ([4]; 100 mg/kg/day, ref protocol Section 1.4.1.2): 357 g·h/mL
- Finding at high dose ([4]; 300 mg/kg/day, Days 8 to 9, ref protocol Section 1.4.1.2): early euthanasia of all the rats
- NOAEL ([4]; rat, in vivo): 30 mg/kg/day
- Grade 3 low potassium ([5]; 60 mg arm): one participant
- Mean total cholesterol, direction of change ([5]; 120 mg arm, baseline to Week 24): decreased
- Grade 3 laboratory abnormalities in triglycerides and creatinine clearance (CrCl) ([5]; 180 mg arm): one participant each
- Grade 3 liver chemistry abnormalities ([5]; GSK3532795 arms): three participants
- Mean decrease in triglyceride levels ([5]; range across all GSK3532795 arms, baseline to Week 24): 5.0 to 12.9 mg/dL
- Inhibition of OCT2 (OCT2): does not inhibit OCT2
- Mean time to onset of first diarrhea event ([6]; 60 mg arm): 48.4 days
- Mean time to onset of first diarrhea event ([6]; 120 mg arm): 19.9 days
- Mean duration of first diarrhea event ([6]; 120 mg arm (longest)): 104.2 days
- Mean time to onset of first diarrhea event ([6]; 180 mg arm): 11.3 days
- SAE considered related to study drug ([6]; GSK3532795 120 mg (no action taken), EFV (led to discontinuation)): Grade 3 abdominal pain
- Grade 1–4-related abdominal pain [6, 17]: 6–16%
- Grade 1–4-related diarrhea [6, 17]: 27–51%
- Adverse events leading to discontinuation [6, 18]: 5%
- Serious adverse events [6, 18]: 5%
- Frequency of Grade 1–4-related AEs ([6]; GSK3532795 arms pooled, EFV 600 mg, through Week 24): 53%
- Safety in Phase 1 ([7]; SAD 10-120 mg, MAD 10-80 mg QD for 14-28 days, ref Study AI468001): No SAEs, deaths, or discontinuations related to study drug occurred
- Half life (T-HALF) ([7]; healthy subjects, ref Study AI468001): approximately 35 hours
- Increase in BMS-955176 AUC(TAU) ([7]; multiple dose with daily 400 mg ATV and a standard meal for 14 days, ref AI468001): ~ 25%
- Time to steady state ([7]; multiple-dose once daily, ref Study AI468001): approximately 7 days
- Increase in Cmax and AUC(INF) with dose ([7]; single dose 10-120 mg, multiple dose 10-80 mg QD, ref Study AI468001): slightly less than dose-proportional
- Increase in BMS-955176 AUC(INF) ([7]; single dose following two doses of 100 mg RTV, ref AI468001): ~48%
- IC50 [8]: > 5 µM
- P-gp substrate status [9]: substrate of mouse P-glycoprotein (P-gp)
- Blood pressure and electrocardiogram ([10]; at 20 mg/kg, ref protocol Section 1.4.1.2): unaffected
- No-observed-effect level (NOEL/NOAEL) for cardiovascular effects (heart rate) ([10]; dog, in vivo): 2 mg/kg
- Genotoxicity in rat micronucleus assay [11]: not genotoxic
- EC50 (93 subtype B viruses): 0.0022 µM
- Increase in Cmax relative to fasted ([12]; all three meal types): approximately 2 fold
- Increase in AUC relative to fasted ([12]; high fat meal): 2.5 fold
- Increase in AUC relative to fasted ([12]; standard meal): 2.1 fold
- EC50 ([13]; V362I plus secondary change-containing viruses, read-out: EC50, median): 0.025 µM
- Loss of susceptibility ([13]; virus with the A364V change): > 100 fold
- Inhibition of P gp, NTCP, OAT1, OAT3, MRP2, and BSEP [14]: not an inhibitor
- IC50 (OATP1B3): 4 µM
- Increase in serum ALT activity ([15]; 20 mg/kg/day, 1 female, ref protocol Section 1.4.1.2): 2.10 × pretest
- Loss of body weight ([15]; 20 mg/kg/day, 2 females, ref protocol Section 1.4.1.2): up to 8%
- NOAEL ([15]; dog, in vivo): 8 mg/kg/day
- NOAEL dose (heart rate) ([15]; dog, in vivo): 20 mg/kg/day
